“Also recorded” adds a separate entry of the source.
How the values were obtained:
[1] = test system: mouse embryonic fibroblast (MEF) cells; assay: Par-4 secretion from normal mouse fibroblasts (Western blot of conditioned medium); type: cell-based
Procedure: In another aspect, the subject technology provides assays for screening test compounds that interfere with vimentin binding to PAR-4 or which cause release of vimentin-bound PAR-4. In a typical assay, cells, such as HEL cells, are seeded onto an appropriate support, such as 60-mm plates containing supplemented growth medium (e.g., supplemented with 0.1% serum) at a desired confluency, such as 40-70% confluency, and treated with the test compound (e.g., 500 nM) or control vehicle. The cells are allowed to grow for a period of time, such as 24 hours, after which the conditioned medium (CM) is concentrated (e.g., concentrated 30× to 100 μl using Millipore tubes (Amicon Ultra centrifugal filters, Ultracel-10K) by 15 min centrifugation at 4500 rpm). The concentrated CM is then subjected to co-immunoprecipitation using detectably labeled PAR-4 and vimentin antibodies in the presence of various concentrations of purified PAR-4 and the precipitated proteins are resolved by SDS-PAGE and analyzed by Western blot analysis. The amount of immunoprecipitated PAR-4-vimentin complex is compared to that of control samples. For example, chemiluminescent signals may be quantified in the BIO-RAD Molecular Imager ChemiDoc XRS+Imaging system using Quantity One software. Induction of Par-4 secretion by the test drug (e.g., 500 nM), as judged by this Western blot analysis procedure, will indicate dissociation of Par-4 from vimentin. […] For such experiments, cells may be treated with the test drug (e.g., 500 nM) or vehicle for an appropriate period of time, such as 24 hours, and then cell lysates are prepared and subjected to immunoprecipitation using an appropriate amount of a Par-4 antibody, vimentin antibody or control IgG antibody by using any standard immunoprecipitation procedure. Following […], the complexes are resolved, preferably by Western blot analysis as described above. If the drug inhibits the binding of Par-4 to vimentin, it will be reflected in the lack of co-immunoprecipitation of Par-4 with the vimentin antibody, and co-immunoprecipitation of vimentin with the Par-4 antibody.
(§1) Co-Immunoprecipitation and Western blot analysis: Protein extracted from cell lysates was filtered, pre-cleared with 25 μL (bed volume) of protein G-Sepharose beads and immunoprecipitated with 1 μg of respective antibodies. The eluted proteins were resolved by SDS-PAGE, and subjected to Western blot analysis as described.
To identify Par-4 secretagogues, we synthesized and screened 3-arylquinolines as well as related quinolones and quinothiolones for the secretion of Par-4 protein from normal fibroblasts under conditions that are not toxic to the cells.
We screened representative members of each of these heterocyclic families on a compound-by-compound basis for the secretion of Par-4 protein from normal mouse fibroblasts under conditions that were not toxic to the cells. Initial expectations were that these heterocycles would serve as Nutlin-3a surrogates and inhibit MDM2, but studies reported herein established a completely different mechanism of action, reflecting that the structural dissimilarities between these heterocycles and Nutlin-3a outweighed the similarities that led to their initial selection for screening.

[2] = test system: normal/immortalized human cells; assay: Par-4 secretion from normal/immortalized human cells; type: cell-based
Procedure: In another aspect, the subject technology provides assays for screening test compounds that interfere with vimentin binding to PAR-4 or which cause release of vimentin-bound PAR-4. In a typical assay, cells, such as HEL cells, are seeded onto an appropriate support, such as 60-mm plates containing supplemented growth medium (e.g., supplemented with 0.1% serum) at a desired confluency, such as 40-70% confluency, and treated with the test compound (e.g., 500 nM) or control vehicle. The cells are allowed to grow for a period of time, such as 24 hours, after which the conditioned medium (CM) is concentrated (e.g., concentrated 30× to 100 μl using Millipore tubes (Amicon Ultra centrifugal filters, Ultracel-10K) by 15 min centrifugation at 4500 rpm). The concentrated CM is then subjected to co-immunoprecipitation using detectably labeled PAR-4 and vimentin antibodies in the presence of various concentrations of purified PAR-4 and the precipitated proteins are resolved by SDS-PAGE and analyzed by Western blot analysis. The amount of immunoprecipitated PAR-4-vimentin complex is compared to that of control samples. For example, chemiluminescent signals may be quantified in the BIO-RAD Molecular Imager ChemiDoc XRS+Imaging system using Quantity One software. […]

[3] = test system: panel of lung tumor cells; assay: Par-4 secretion from lung tumor cells; type: cell-based
prostate cancer cells = assay: Par-4 secretion from prostate cancer cells; type: cell-based; conditions: relative to vehicle control
[4] = target: T1, binding of Par-4 to vimentin (Homo sapiens, UniProt P08670); assay: Co-immunoprecipitation and immunocytochemistry of Par-4 and vimentin; type: cell-based; conditions: cells treated with compound
T1 construct: the Par-4 antibody co-immunoprecipitated endogenous vimentin; endogenous in cells
T1 sequence (P08670 2-466 limits assumed): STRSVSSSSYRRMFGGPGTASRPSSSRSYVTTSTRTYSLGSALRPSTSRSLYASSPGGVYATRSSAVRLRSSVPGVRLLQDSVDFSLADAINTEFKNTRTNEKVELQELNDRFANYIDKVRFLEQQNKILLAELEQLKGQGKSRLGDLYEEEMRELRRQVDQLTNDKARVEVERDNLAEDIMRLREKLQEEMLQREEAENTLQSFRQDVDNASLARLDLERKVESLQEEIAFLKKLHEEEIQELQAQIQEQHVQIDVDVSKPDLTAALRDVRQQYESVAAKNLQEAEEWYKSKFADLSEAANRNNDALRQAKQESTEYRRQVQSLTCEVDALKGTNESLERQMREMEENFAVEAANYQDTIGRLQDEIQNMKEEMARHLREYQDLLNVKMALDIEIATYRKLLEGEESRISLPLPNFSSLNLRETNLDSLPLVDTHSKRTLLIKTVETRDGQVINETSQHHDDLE
Procedure: as §1

LNCaP = assay: Apoptosis, LNCaP cells; type: cell-based, human; conditions: 500 nM
Procedure: (§2) See Hebbar, N., Wang, C. & Rangnekar, V. M. J Cell Phys 227, 3715-3721 (2012) and Shrestha-Bhattarai, T., Hebbar, N. & Rangnekar, V. M. Cancer Cell 24, 3-5 (2013). A total of three independent experiments were performed; and approximately 500 cells were scored in each experiment for apoptosis under a fluorescent microscope. Cell surface GRP78 expression on the cancer cell surface was quantified by FACS analysis in the Flow Cytometry Shared Resource Facility, Markey Cancer Center as previously described. See Hebbar, N., Wang, C. & Rangnekar, V. M. J Cell Phys 227, 3715-3721 (2012).

[5] = test system: cancer cells co-cultured with Par-4+/+ MEFs; assay: Apoptosis in co-cultures of Par-4+/+ MEFs and cancer cells; type: cell-based
Procedure: (§3) Top: Cancer cells were co-cultured with MEFs and treated with Arylquin 1 (500 nM) or vehicle and tested for apoptosis. Bottom: Serum from mice injected with Arylquin 1 (Aq) or corn oil vehicle (V), was examined by Western blot analysis (not shown). Aliquots of serum from these mice were either directly added to the growth medium of cells in culture, or incubated with the indicated antibody, and then added to the growth medium of PC-3 MM2 cells to test for apoptosis.
as §2

[6] = test system: cancer cells co-cultured with Par-4-/- MEFs; assay: Apoptosis in co-cultures of Par-4-/- MEFs and cancer cells; type: cell-based; conditions: 500 nM
Procedure: as §3, §2

normal HEL cells = assay: Apoptosis of normal cells in co-culture experiments; type: cell-based, human; conditions: 500 nM
Procedure: as §2

Par-4 in serum = assay: Circulating Par-4 in serum of injected mice; type: in vivo, C57BL/6 mice; conditions: 10 mg/kg intraperitoneal, 24 h
Procedure: (§4) Animal experiments: C57BL/6 mice were injected via the intraperitoneal route with Arylquin 1 (10 mg/kg body weight) or corn oil vehicle, and whole-blood samples were collected 24 h later. Serum was separated from the blood samples, heated at 56° C. to inactivate complement. Aliquots of the mouse serum samples were added to the growth medium (final 20% mouse serum) of normal and cancer cells in culture and tested for induction of ex vivo apoptosis in cancer cells. All animal procedures were performed with University of Kentucky IACUC approval.

[7] = test system: cancer cell cultures (PC-3 MM2 cells); assay: Ex vivo apoptosis of cancer cell cultures by serum from treated mice; type: in vivo, C57BL/6 mice (serum)
Procedure: as §3, §4

For `CN(C)c1ccc2cc(-c3ccccc3F)c(N)nc2c1` [Arylquin 1, 3-(2-fluorophenyl)-N^7,N^7-dimethylquinoline-2,7-diamine], the Par-4 secretion ([1]; MEF cells) was “dose-dependent secretion”, the “level of Par-4 secretion, structure-activity comparison among analogs” value ([1]; normal mouse fibroblasts, conditions not toxic to the cells) was “most active; also recorded: highest levels of Par-4 secretion” and the “secretion of Par-4 from normal fibroblasts and epithelial cells” value ([2]; nanomolar concentrations) was “dose-dependent secretion of Par-4 at nanomolar concentrations”. The Par-4 secretion ([2]; normal/immortalized human cells) was “induced robust secretion of Par-4”, the Par-4 secretion [3] was “failed to induce the secretion of Par-4” and the Par-4 secretion (prostate cancer cells) was “showed induction of Par-4 secretion”. For the same compound, the “Par-4 co-immunoprecipitation and co-localization with vimentin” value [4] was “neither Par-4 co-immunoprecipitation nor co-localization with vimentin”, the vimentin expression [4] was “not associated with inhibition of vimentin expression” and the apoptosis (LNCaP) was “not in LNCaP or DU145 cells”. For the same compound, the “apoptosis of cancer cells in co-culture” value ([5]; 500 nM, Par-4+/+ MEFs, relative to vehicle) was “resulted in apoptosis of the cancer cells”, the “paracrine apoptosis of lung cancer cells by Par-4 secreted from normal cells” value ([5]; p53-wild type, p53-deficient and oncogenic K-ras lung cancer cells) was “adequate to induce paracrine apoptosis” and the “apoptosis of cancer cells in co-culture” value [6] was “did not induce apoptosis”. For the same compound, the “apoptosis of normal cells in co-culture” value (normal HEL cells) was “not normal HEL cells”, the “Par-4 secretion in serum relative to vehicle control” value (Par-4 in serum) was 5 fold and the “pro-apoptotic activity in serum after Par-4 antibody” value ([7]; serum incubated with Par-4 antibody) was “neutralized by the Par-4 antibody”. The “ex vivo apoptosis of cancer cell cultures by serum” value ([7]; serum of treated vs vehicle-treated mice, final 20% mouse serum) was “significantly higher (P<0.001) ex vivo apoptosis”.
